Reference: PubChem BioAssay AID2060351 (Molecular Pharmacology Branch, DTP, NCI, 2025)

Test system: 521955-158-R7-J2-PDC spheroids, viability % test/control
Assay: Anticancer human tumor 521955-158-R7-J2-PDC patient-derived pancreatic carcinoma cell line growth inhibition [TAK]
Settings: spheroids with HUVEC and MSC; for IC50: curve of first compound; for viability, T/C: stronger effect = lower value
Description: Combinatorial screen of targeted agents with TAK-243 and ipatasertib in multi-cell type tumor spheroids
A high-throughput screen of multi-cell type tumor spheroids was designed to identify active combinations of targeted small molecules and TAK-243 or ipatasertib. Complex spheroids include a stromal component modeled by human endothelial cells (HUVEC) and fibroblasts modeled by human mesenchymal stem cells (MSCs). The concentration ranges selected for each drug and investigational agent were based upon clinically achievable concentrations if the clinical Cmax of the agent was known.
Compounds. The drugs and investigational agents: TAK-243 (785004), ipatasertib (767898), everolimus (733504), selumetinib (741078), bortezomib (756655), trametinib (758246), ixazomib (758254), vemurafenib (761431), dabrafenib (764134), sapanisertib (764658), alpelisib (765974), and copanlisib (816437), were obtained from the National Cancer Institute (NCI) Developmental Therapeutics Program Chemical Repository. The FDA-approved anticancer drug set is available from the NCI Developmental Therapeutics Program. […] The stock solutions were prepared in dimethyl sulfoxide (DMSO, Sigma-Aldrich, St. Louis, MO, cat. D2650) at 800-fold the tested concentration and stored at -70 degrees C prior to their use. All drugs and investigational agents were tested over a range starting from a high concentration at or near the clinical Cmax and decreasing in half-log increments. If the clinical Cmax for an agent had not been determined, the highest concentration tested was 10 microM.
NCI60 Cell Culture. NCI60 cell lines were obtained from the NCI Developmental Therapeutics Program Tumor Repository. For each lot of cells, the Repository performed Applied Biosystems AmpFLSTR Identifiler testing with PCR amplification to confirm consistency with the published Identifier STR profile for each cell line. Cells were kept in continuous culture for no more than 20 passages. The optimal seeding densities for each of the cell lines at each time point assessed were determined prior to performing the concentration response studies. Briefly, the NCI60 human tumor lines were grown as monolayers in RPMI 1640 medium supplemented with 10% FBS and 2 mmol/L L-glutamine.
An additional 2 lines were from the NCI60 cell line panel including melanomas, MALME-3M and SK-MEL-2. Pooled donor human umbilical vein endothelial cells (HUVEC, Lonza, cat. CC-2519) and human mesenchymal stem cells (hMSC, Lonza, cat. PT-2501) were purchased from Lonza (Walkersville, MD).
PDMR cell lines were grown in complete medium (DC medium): Dulbecco's modified Eagle's medium (DMEM)/F12 supplemented with 5% fetal bovine serum (FBS), 2 mM L-glutamine, 100 U/mL penicillin and 100 µg/ml streptomycin, 0.4 µg/ml hydrocortisone, 10 ng/ml epidermal growth factor (EGF) recombinant human protein, 24 µg/mL adenine, and 0.1 mg/mL primocin. During culture from frozen stock vials, PDMR cells were cultured in the same medium containing 10 µM Y-27632 (see Table 3). The PDCs were cultured in complete DMEM/F12 media without 10 microM Y-27632 dihydrochloride for at least two passages prior to the screen. The pooled donor HUVEC and hMSC were cultured in endothelial cell growth medium 2 (PromoCell, Heidelberg, Germany, cat. C-22011) and mesenchymal stem cell growth medium 2 (PromoCell, cat. C-28009), respectively. For all experiments, HUVEC and hMSC were used at passages </=5.
For the pre-screen, cell seeding densities were determined from a titration spanning the range from 5,000 to 313 cells per well. The mct-spheroids including 60% malignant cells, 25% HUVEC and 15% MSC dispensed as a mixture into U-bottom Ultra-Low Attachment 384-well plates (Corning, NY)
High-throughput Drug Combination Screening.
Prior to their inoculation into 384-well plates, malignant cells, HUVEC, and hMSC were removed from T flasks using TrypLE express (Thermo Fisher Scientific, cat. 12605036) and harvested by centrifugation for 5 min at 233 x g. […]
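Note: spheroids exposed to compound for 7 days before readout.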

For CC(=O)Nc1cccc(-n2c(=O)n(C3CC3)c(=O)c3c(Nc4ccc(I)cc4F)n(C)c(=O)c(C)c32)c1 + CC(C)NCC(C(=O)N1CCN(c2ncnc3c2C(C)CC3O)CC1)c1ccc(Cl)cc1, the IC50 (second compound 0.3 µM) was 1.34 nM, the IC50 (second compound 0.949 µM) was 1.4 nM and the IC50 (second compound 3 µM) was 0.802 nM. The IC50 (second compound 9.49 µM) was 0.763 nM, the IC50 (second compound 30 µM) was 0.786 nM and the viability, T/C (second compound 0.3 µM, first compound 94.9 pM) was 98.9%. For the same compound, the viability, T/C (second compound 0.3 µM, first compound 0.0003 µM) was 79.8%, the viability, T/C (second compound 0.3 µM, first compound 0.000949 µM) was 51.1% and the viability, T/C (second compound 0.3 µM, first compound 0.003 µM) was 39.4%. The viability, T/C (second compound 0.3 µM, first compound 0.00949 µM) was 23.8%, the viability, T/C (second compound 0.3 µM, first compound 0.03 µM) was 11.7% and the viability, T/C (second compound 0.949 µM, first compound 94.9 pM) was 106%. The viability, T/C (second compound 0.949 µM, first compound 0.0003 µM) was 83.6%, the viability, T/C (second compound 0.949 µM, first compound 0.000949 µM) was 50.4% and the viability, T/C (second compound 0.949 µM, first compound 0.003 µM) was 39.7%. The viability, T/C (second compound 0.949 µM, first compound 0.00949 µM) was 24.9%, the viability, T/C (second compound 0.949 µM, first compound 0.03 µM) was 10.5% and the viability, T/C (second compound 3 µM, first compound 94.9 pM) was 99.6%. For the same compound, the viability, T/C (second compound 3 µM, first compound 0.0003 µM) was 61.7%, the viability, T/C (second compound 3 µM, first compound 0.000949 µM) was 50.2% and the viability, T/C (second compound 3 µM, first compound 0.003 µM) was 31.8%. It also gave a viability, T/C (second compound 3 µM, first compound 0.00949 µM) of 23%, a viability, T/C (second compound 3 µM, first compound 0.03 µM) of 8.8% and a viability, T/C (second compound 9.49 µM, first compound 94.9 pM) of 82.7%. For the same compound, the viability, T/C (second compound 9.49 µM, first compound 0.0003 µM) was 68.7%, the viability, T/C (second compound 9.49 µM, first compound 0.000949 µM) was 40.3% and the viability, T/C (second compound 9.49 µM, first compound 0.003 µM) was 32.1%. The viability, T/C (second compound 9.49 µM, first compound 0.00949 µM) was 25%, the viability, T/C (second compound 9.49 µM, first compound 0.03 µM) was 7.94% and the viability, T/C (second compound 30 µM, first compound 94.9 pM) was 93.1%. The viability, T/C (second compound 30 µM, first compound 0.0003 µM) was 61.4%, the viability, T/C (second compound 30 µM, first compound 0.000949 µM) was 44.3% and the viability, T/C (second compound 30 µM, first compound 0.003 µM) was 35.5%. It also gave a viability, T/C (second compound 30 µM, first compound 0.00949 µM) of 20.4% and a viability, T/C (second compound 30 µM, first compound 0.03 µM) of 4.94%.
